# According to patent US8110543B2, “Anti-invasive and anti-angiogenic compositions” (Angstrom Pharmaceuticals, Inc., priority 1997, dated 2012):
# Key:
# 3LL = 3LL metastasis model, related peptides; set-up: species or system mice; details: mouse, in vivo
# From the text: This model has been utilized by a number of investigators. See, for example, Gorelik, E. et al., J. Nat'l. Canc. Inst. 65:1257-1264 (1980); Gorelik, E. et al., Rec. Results Canc Res. 75:20-28 (1980); Isakov, N. et al., Invasion Metas. 2:12-32 (1982); Talmadge J. E. et al., J. Nat'l. Canc. Inst. 69:975-980 (1982); Hilgard, P. et al, Br. J. Cancer 35:78-86 (1977)). Test mice are male C57BL/6 mice, 2-3 months old. Following sc, im, or intra-footpad implantation, this tumor produces metastases, preferentially in the lungs. With some lines of the tumor, the primary tumor exerts anti-metastatic effects and must first be excised before study of the metastatic phase (see also U.S. Pat. No. 5,639,725).
# Single-cell suspensions are prepared from solid tumors by treating minced tumor tissue with a solution of 0.3% trypsin. Cells are washed 3 times with PBS (pH 7.4) and suspended in PBS. Viability of the 3LL cells prepared in this way is generally about 95-99% (by trypan blue dye exclusion). Viable tumor cells (3×10^4-5×10^6) suspended in 0.05 ml PBS are injected subcutaneously, either in the dorsal region or into one hind foot pad of C57BL/6 mice. Visible tumors appear after 3-4 days after dorsal sc injection of 10^6 cells. The day of tumor appearance and the diameters of established tumors are measured by caliper every two days.
# The treatment is given as one or two doses of peptide or derivative, per week. In another embodiment, the peptide is delivered by osmotic minipump.
# Lungs are removed and weighed. Lungs are fixed in Bouin's solution and the number of visible metastases is recorded. The diameters of the metastases are also measured using a binocular stereoscope equipped with a micrometer-containing ocular under 8× magnification. On the basis of the recorded diameters, it is possible to calculate the volume of each metastasis. To determine the total volume of metastases per lung, the mean number of visible metastases is multiplied by the mean volume of metastases. To further determine metastatic growth, it is possible to measure incorporation of ^125IdUrd into lung cells (Thakur, M. L. et al., J. Lab. Clin. Med. 89:217-228 (1977). Ten days following tumor amputation, 25 μg of fluorodeoxyuridine is inoculated into the peritoneums of tumor-bearing (and, if used, tumor-resected mice). After 30 min, mice are given 1 μCi of ^125IdUrd (iododeoxyuridine). One day later, lungs and spleens are removed and weighed, and a degree of ^125IdUrd incorporation is measured using a gamma counter.
# In addition to Å6, other related peptide compounds described above are tested for efficacy in vivo in the 3LL model (as provided above) as well as the PC-3 model. PC-3 cells transfected with the gene encoding the enzyme chloramphenicol acetyl-transferase (CAT) are inoculated into mice i.v. at doses of 1×10^6 cells per mouse. These mice are implanted with a minipump, as above, which dispenses 100 mg/kg/day of the peptide or vehicle over a period of 14 or 21 days. At termination of treatment, the animals are euthanized and the tumor marker probe is assayed in regional lymph nodes, femurs, lungs, and brain.
# Mat B-III = assay: In vitro proliferation, Mat B-III cells; type: cell-based, rat
# Experimental: (§1) Å6 was also tested for its ability to inhibit the proliferation of cells other than endothelial cells in vitro.
# [1] = tested on: bFGF-induced angiogenesis; assay: Chick CAM angiogenesis assay; type: in vivo
# Experimental: Major vessels were quantitated at this time.
# A: Control CAM; B: CAM treated with 1.2 μg/disk of Å6.
# Å6 was tested for its effect on bFGF-induced angiogenesis in a 7 day old chick CAM assay.
# [2] = tested on: MDA-MB-231 human breast cancer cells; assay: MDA-MB-231 GFP xenograft model; type: in vivo, mice
# Experimental: Nude mice (n=5 per group) were challenged with 2×10^5 tumor cells co-injected into the mammary fat pad of the mice with Matrigel. […] Control animals received vehicle (PBS) only.
# These cells were first transfected with green fluorescent protein (GFP) to simplify the detection and visualization of metastases.
# The tumor cells (5×10^5) were suspended in 0.1 mL of Matrigel and injected into the mammary fat pad of female BALB/c nu/nu mice. Treatment (75 mg/kg/day) was initiated when the tumors were palpable (10 mm^3, approximately 4 weeks after inoculation of tumor cells) and continued for 5 weeks. Tumor volumes were determined twice per week using caliper measurements. The animals were euthanized at the end of the 5th week of treatment, necropsied and examined for macroscopic metastases. Sections prepared from LNs, lung, liver, spleen and kidney were analyzed for microscopic dissemination of tumor cells using fluorescence microscopy to detect GFP-positive foci.
# Macroscopic metastases were enumerated and their size measured with calipers (Table I below). Microscopic dissemination of tumor cells was quantitated by counting GFP-positive foci in representative sections from lung, liver, kidney and spleen.
# Macrometastases were determined by excising involved LNs and determining the tumor volume by caliper measurement. Microscopic tumor foci were quantitated by sectioning and fixing target organs, then visualizing GFP-labeled cells using fluorescence microscopy (at 200× enlargement). The number of disseminated tumor foci represents the average of 5 fields per section from 3 different sections per organ.
# plasmin = plasmin (Homo sapiens, UniProt P00747); assay: Plasmin activity; type: biochemical
# Chain of plasmin (P00747 97-580 limits assumed, species assumed): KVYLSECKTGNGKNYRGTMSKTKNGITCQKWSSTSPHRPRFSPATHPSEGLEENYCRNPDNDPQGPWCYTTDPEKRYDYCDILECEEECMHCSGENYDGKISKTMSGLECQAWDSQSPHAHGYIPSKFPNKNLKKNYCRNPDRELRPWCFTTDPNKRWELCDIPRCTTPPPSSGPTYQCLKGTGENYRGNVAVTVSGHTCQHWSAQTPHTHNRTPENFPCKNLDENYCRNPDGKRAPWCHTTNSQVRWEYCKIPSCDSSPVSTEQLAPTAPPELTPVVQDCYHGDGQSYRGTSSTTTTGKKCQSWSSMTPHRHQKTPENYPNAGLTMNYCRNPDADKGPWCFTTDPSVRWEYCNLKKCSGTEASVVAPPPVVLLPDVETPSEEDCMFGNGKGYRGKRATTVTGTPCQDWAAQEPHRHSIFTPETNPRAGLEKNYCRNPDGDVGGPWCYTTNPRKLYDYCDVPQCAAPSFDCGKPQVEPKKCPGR
# Chain of plasmin (P00747 581-810 limits assumed, species assumed): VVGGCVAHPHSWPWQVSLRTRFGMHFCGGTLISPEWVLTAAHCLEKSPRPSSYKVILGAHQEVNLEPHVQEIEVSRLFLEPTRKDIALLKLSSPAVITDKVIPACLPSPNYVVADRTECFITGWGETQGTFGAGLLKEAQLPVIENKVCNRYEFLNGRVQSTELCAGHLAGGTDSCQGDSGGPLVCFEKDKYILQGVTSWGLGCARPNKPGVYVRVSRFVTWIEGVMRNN
# scuPA-suPAR = scuPA-suPAR (Homo sapiens, UniProt P00749); assay: Activation of plasminogen by scuPA-suPAR with small chromogenic substrates; type: biochemical
# [3] = tested on: SMC (aortic smooth muscle cells); assay: In vitro proliferation, SMC; type: cell-based
# Experimental: as §1
# HeLa = assay: In vitro proliferation, HeLa cells; type: cell-based
# Experimental: as §1
# CHO = assay: In vitro proliferation, CHO cells; type: cell-based
# Experimental: as §1
# HUVEC = HUVEC proliferation assay; type: cell-based, human
# Experimental: HUVEC were plated on gelatin and allowed to adhere for 4 hrs in the presence of 2% FBS. bFGF (1 ng/mL) and the test compounds were added after 4 hours and the % proliferation (where bFGF induced proliferation was 100% and proliferation in the absence of bFGF was 0) was determined using MTS. FIG. 4: the Å6 (50 μg/mL) concentration was kept constant and the concentration of cisplatin (“CDDP”) was varied; FIG. 5: CDDP was kept constant at a sub-optimal dose (1 μg/mL) and Å6 was varied.
# Å6 was tested for its ability to inhibit HUVEC proliferation.
# [4] = average of 5 fields per section from 3 sections
substance,measurement,setting,value
"Ac-KPSSPPEE-NH2 [Å6, CH3CO-Lys-Pro-Ser-Ser-Pro-Pro-Glu-Glu-NH2]","metastasis, 3LL model",3LL,markedly inhibited
same,"anti-proliferative effect, Mat B-III",Mat B-III,No anti-proliferative effects
same,bFGF-induced angiogenesis (major vessel formation) in CAM,"[1]; 7 day old chick CAM, 4 days",inhibits angiogenesis
same,branching morphogenesis in CAM,"[1]; qualitative, stereomicroscopic images",inhibited branching morphogenesis
same,growth of primary challenge tumors,"[2]; IP, 1 mg bid, started when tumor nodules palpable (FIG. 15)",inhibits the growth
same,"Disseminated GFP-positive Tumor Foci, Liver",[2]; [4],3.11 ± 0.14
same,"Disseminated GFP-positive Tumor Foci, Lung",[2]; [4],2.09 ± 0.30
same,"Disseminated GFP-positive Tumor Foci, Spleen",[2]; [4],28.30 ± 2.80
same,"Macroscopic Metastases, Lungs, Number",[2]; end of 5th week of treatment,1 ± 0
same,"Macroscopic Metastases, Lymph Nodes, Number",[2]; end of 5th week of treatment,1.2 ± 0.2
same,"Macroscopic Metastases, Lymph Nodes, Size",[2]; end of 5th week of treatment,7 ± 3 mm^3
same,single foci versus larger colonies in organ sections,[2]; liver and lungs,greater number of single foci
same,Factor VIII-positive hot spots in tumor sections,"[2]; mouse, in vivo",decrease
same,TUNEL-positive foci in tumor sections,"[2]; mouse, in vivo",significant increase
same,effect on the activity of plasmin directly,plasmin,did not affect
same,effect on activation of plasminogen by scuPA-suPAR,scuPA-suPAR,did not affect
same,"anti-proliferative effect, SMC",[3],No anti-proliferative effects
same,"anti-proliferative effect, HeLa",HeLa,No anti-proliferative effects
same,"anti-proliferative effect, CHO",CHO,No anti-proliferative effects
same,potentiation of the anti-proliferative activity of cisplatin (CDDP) against endothelial cells,"HUVEC; CDDP 1 μg/mL, Å6 varied (FIG. 5)",did not potentiate
same,inhibition of HUVEC proliferation,"HUVEC; concentrations as high as 312 μg/mL (340 μM), gelatin, 2% FBS",No inhibition
